# In article PMC12256496, “An advancement in developmental and reproductive toxicity (DART) risk assessment: evaluation of a bioactivity and exposure-based NAM toolbox” (Frontiers in Toxicology, 2025):
# Where “and” joins values, the source holds several entries; their conditions need not be identical. Equal entries are not always repeated. Where two headings read alike, the source gives them in different places.
# Tests used:
# [1] = test system: human developmental and reproductive toxicity; settings: cited from earlier work
# [2] = test system: developmental or reproductive toxicity in animal or human; settings: cited from earlier work
# [3] = renal clearance, Fup*GFR (PBK parameter); settings: method Fup*GFR
# [4] = Human in vivo PK data: concentration-dose ratio (CDR) and toxicokinetic variability factor (TKVF); parameters: 95% percentile (Conc-dose-ratio): unit not given here;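 note: Literature-pooled human in vivo PK data, plasma, serum or cord blood concentrations per daily dose, weighted by study population size across non-pregnant, pregnant and fetal groups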
# [5] = cited from earlier work; for MoS: existent consumer risk assessment for the cosmetic use scenario, ref SCCS / SCCP / SCCNFP; for ADI: ref FSCJ, EFSA, SCF, JMPR as named in the cell
# [6] = Solubility pH 7, cited from earlier work
# rats = settings: ref Supplementary Data Sheet 1, cited from earlier work
# [7] = ref Supplementary Data Sheet 1, cited from earlier work
# [8] = Bioactivity exposure ratio (BER): minimum platform PoD / estimated Cmax; settings: low-risk exposure scenario of the compound
# [9] = skin absorption / systemic exposure dose for dermal exposure (PBK parameter); assay type: in vitro ADME
# From the text: Where a SED (systemic exposure dose) was reported systemic exposure from a dermal administration was modelled as a slow intravenous infusion of the SED, which corrects the applied dose for the rate of skin absorption (%). Where no SED was available dermal exposure route was predicted by the dermal module in GastroPlus® administration.
# [10] = hepatic intrinsic clearance, CLint (PBK parameter); assay type: in vitro ADME
# [11] = evidence of developmental or reproductive toxicity in animal or human, irrespective of exposure/dose, ref Supplementary Data Sheet 1
# [12] = Non-Pregnant population (reference)
# [13] = Non-Pregnant population, TKVF95 = p95 / weighted mean concentration-dose ratio
# [14] = Non-Pregnant, combined (oral+IV)
# [15] = two multigeneration rat studies
# [16] = Pregnant population (reference)
# [17] = Pregnant population, TKVF95 = p95 / weighted mean concentration-dose ratio
# [18] = Foetus, oral, combined (tretinoin, retinyl palmitate, dietary retinoids)
# [19] = Non-Pregnant, dermal, formulation radiolabelled tretinoin
# [20] = Non-Pregnant, oral, combined (tretinoin, retinyl palmitate, dietary retinoids)
# [21] = Pregnant, oral, combined (tretinoin, retinyl palmitate, dietary retinoids)
structure (smiles),measurement,setting,value
"CCCCCCC(O)CO (stereo not drawn) [1,2-Octanediol]",Exposure risk (DART risk classification),"[1]; Cosmetic, 5% in body lotion, dermal, ref Supplementary Data Sheet 1",Low Risk
same,DART Hazard Call,[2]; [11],Non Toxic
same,Renal Clearance,[3],5.129 L/h
COc1ccc(C(=O)c2ccccc2)c(O)c1 [2-Hydroxy-4-methoxybenzophenone],95% percentile (Conc-dose-ratio),"[4]; Non-Pregnant, dermal",0.000717
same,Mean Conc-dose -ratio,"[4]; Non-Pregnant, dermal",0.00025 uM/(mg/day]
same,TKVF,"[4]; Non-Pregnant, dermal",2.84
same,Exposure risk (DART risk classification),"[1]; Cosmetic, 6% in sunscreen, dermal, ref Supplementary Data Sheet 1",Low Risk
same,DART Hazard Call,[2]; [11],Non Toxic
same,MoS,[5],Used safely in cosmetic products. Existent consumer risk assessment from the SCCS. MoS 38.
Cn1c(=O)c2c(ncn2C)n(C)c1=O [Caffeine],TKVF,"[4]; female, human, in vivo",2.42
same,TKVF,"[4]; female, human, in vivo, po",2.42
same,TKVF,"[4]; human, in vivo, po",2.84
O=S(=O)(O)NC1CCCCC1 [Cyclamate],Exposure risk (DART risk classification),"[1]; Dietary, 420 mg/daily, oral, ref Supplementary Data Sheet 1",Low Risk
same,Aqueous Solubility,"[6]; median, ref [5],[8]",84.5 mg/mL
same,ADI,[5],ADI set by SCF (7mg/kg/day)
O=P1(N(CCCl)CCCl)NCCCO1 (stereo not drawn) [Cyclophosphamide],CDR fold difference to non-pregnant,[4]; [12],1.00
same,TKVF,[4]; [13],3.15
same,95% percentile (Conc-dose-ratio),[4]; [14],0.09
same,Fold Difference to non-pregnant,[4]; [14],1.00
same,Mean Conc-dose -ratio,[4]; [14],0.030 uM/(mg/day]
same,TKVF,[4]; [14],3.15
same,CDR fold difference to non-pregnant,[4]; Pregnant population,2.85
same,Fold Difference to non-pregnant,"[4]; Pregnant, IV",2.85
same,Mean Conc-dose -ratio,"[4]; Pregnant, IV",0.084 uM/(mg/day]
same,Exposure risk (DART risk classification),"[1]; Pharmaceutical, 60 mg/daily, oral, ref Supplementary Data Sheet 1",High Risk
same,DART Hazard Call,[2]; [11],Toxic
CC1(C)C(C=C(Cl)Cl)C1C(=O)OC(C#N)c1cccc(Oc2ccccc2)c1 (stereo not drawn) [Cypermethrin],NOAEL,"rats; 15-day intact adult male rat assay, decreased body weight gain",6 mg/kg bw per day
same,reproductive NOAEL,"rats; two multigeneration rat studies, decreased survival of pups at birth",10 mg/kg bw per day
same,offspring NOAEL,rats; [15],10 mg/kg bw per day
same,parental NOAEL,rats; [15],10 mg/kg bw per day
same,developmental NOAEL,[7]; DNT study,15 mg/kg bw per day
CCN(CC)C(=O)c1cccc(C)c1 [DEET],95% percentile (Conc-dose-ratio),[4]; in vivo,0.0013
same,Mean Conc-dose -ratio,[4]; in vivo,0.00066 uM/(mg/day]
same,TKVF,[4]; in vivo,1.97
same,Exposure risk (DART risk classification),[1],Low Risk
same,DART Hazard Call,[2],Uncertain
C[C@@H]1C[C@H]2[C@@H]3CCC4=CC(=O)C=C[C@]4(C)[C@@]3(F)[C@@H](O)C[C@]2(C)[C@@]1(O)C(=O)CO [Dexamethasone],CDR fold difference to non-pregnant,"[4]; female, human, in vivo",1.50
same,TKVF,"[4]; female, human, in vivo",2.51
same,CDR fold difference to non-pregnant,"[4]; human, in vivo",1.00
same,TKVF,"[4]; human, in vivo",1.99
same,DART Hazard Call,[2]; [11],Toxic
"CC/C(=C(/CC)c1ccc(O)cc1)c1ccc(O)cc1 [Diethylstilbestrol (DES), Diethylstilbestrol]",Exposure risk (DART risk classification),"[1]; Pharmaceutical, 0.5 mg/daily, oral, ref Supplementary Data Sheet 1",High Risk
same,DART Hazard Call,[2]; [11],Toxic
C[C@H]1O[C@@H](O[C@H]2[C@@H](O)C[C@H](O[C@H]3[C@@H](O)C[C@H](O[C@H]4CC[C@@]5(C)[C@H](CC[C@@H]6[C@@H]5C[C@@H](O)[C@]5(C)[C@@H](C7=CC(=O)OC7)CC[C@]65O)C4)O[C@@H]3C)O[C@@H]2C)C[C@H](O)[C@@H]1O [Digoxin],TKVF,"[4]; female, human, in vivo",2.35
same,TKVF,"[4]; female, human, in vivo, po",2.35
same,BER,[8],< 1
C[C@@H]1CCO[C@H]2Cn3cc(C(=O)NCc4ccc(F)cc4F)c(=O)c(O)c3C(=O)N12 [Dolutegravir],CDR fold difference to non-pregnant,[4]; Fetus population,0.46
same,CDR fold difference to pregnant,[4]; Fetus population,0.65
same,TKVF,"[4]; Fetus population, TKVF95 = p95 / weighted mean concentration-dose ratio",1.40
same,95% percentile (Conc-dose-ratio),"[4]; Foetus, oral",0.11
same,Fold Difference to non-pregnant,"[4]; Foetus, oral",0.46
same,Fold Difference to pregnant,"[4]; Foetus, oral",0.65
same,Mean Conc-dose -ratio,"[4]; Foetus, oral",0.08 uM/(mg/day]
same,TKVF,"[4]; Foetus, oral",1.40
same,CDR fold difference to non-pregnant,[4]; [12],1.00
same,TKVF,[4]; [13],1.87
same,95% percentile (Conc-dose-ratio),"[4]; Non-Pregnant, oral",0.33
same,Fold Difference to non-pregnant,"[4]; Non-Pregnant, oral",1.00
same,Mean Conc-dose -ratio,"[4]; Non-Pregnant, oral",0.18 uM/(mg/day]
same,TKVF,"[4]; Non-Pregnant, oral",1.87
same,CDR fold difference to non-pregnant,[4]; Pregnant population,0.70
same,CDR fold difference to pregnant,[4]; [16],1.00
same,TKVF,[4]; [17],2.64
same,95% percentile (Conc-dose-ratio),"[4]; Pregnant, oral",0.33
same,Fold Difference to non-pregnant,"[4]; Pregnant, oral",0.70
same,Fold Difference to pregnant,"[4]; Pregnant, oral",1.00
same,Mean Conc-dose -ratio,"[4]; Pregnant, oral",0.12 uM/(mg/day]
same,TKVF,"[4]; Pregnant, oral",2.64
same,Exposure risk (DART risk classification),"[1]; Pharmaceutical, 50 mg/daily, oral, ref Supplementary Data Sheet 1",High Risk
same,DART Hazard Call,[2]; [11],Toxic
O=CCCCC=O [Glutaraldehyde],Diffusivity Dermis,[9]; optimised based on [10],1.00E-07 cm^2/s
same,Diffusivity Stratum Corneum,[9]; optimised based on [10],1.00E-09 cm^2/s
same,Diffusivity Viable Epidermis,[9]; optimised based on [10],5.00E-08 cm^2/s
same,Partition Coefficient Stratum Corneum/Water,[9]; optimised based on [10],2.30
same,Partition Coefficient Viable Epidermis/Water,[9]; optimised based on [10],3.00
same,Exposure risk (DART risk classification),"[1]; Cosmetic, 0.1% in body lotion, dermal, ref Supplementary Data Sheet 1",Low Risk
same,DART Hazard Call,[2]; [11],Non Toxic
same,Aqueous Solubility,[6]; ref [7],167.2 mg/mL
same,Chronic Dietary RfD,[5]; ref EPA,Chronic Dietary RfD set by EPA (0.16 mg/kg/day)
same,highest dose tested without evidence of developmental toxicity,rats; two developmental toxicity studies in the rat,50 mg/kg/day and 68 mg/kg/day
same,Renal Clearance,[3],6.185 L/h
Nc1ccc(NCCO)c([N+](=O)[O-])c1 [HC Red 3],Intrinsic Liver Clearance,[10],248.1 L/h
same,Diffusivity Dermis,[9]; optimised based on [11],1.00E-08 cm^2/s
same,Diffusivity Stratum Corneum,[9]; optimised based on [11],1.00E-08 cm^2/s
same,Diffusivity Vehicle,[9]; optimised based on [11],1.00E-05 cm^2/s
same,Diffusivity Viable Epidermis,[9]; optimised based on [11],1.00E-10 cm^2/s
same,Partition Coefficient Stratum Corneum/Water,[9]; optimised based on [11],1.50
same,Exposure risk (DART risk classification),[1],Low Risk
same,DART Hazard Call,[2],Non Toxic
same,NOAEL for maternal toxicity,[7],200 mg/kg/day
same,Renal Clearance,[3],4.496 L/h
CC(C)(CO)C(O)C(=O)NCCCO (stereo not drawn) [Panthenol],Diffusivity Stratum Corneum,[9]; optimised based on [12],2.29E-13 cm^2/s
same,Partition Coefficient Stratum Corneum/Water,[9]; optimised based on [12],1.96
same,Renal Clearance,[3],6.348 L/h
same,BER,[8],< 1
C[n+]1ccc(-c2cc[n+](C)cc2)cc1 [Paraquat],CDR fold difference to non-pregnant,[4]; Fetus population,0.06
same,CDR fold difference to pregnant,[4]; Fetus population,1.15
same,Fold Difference to non-pregnant,"[4]; Foetus, oral",0.056
same,Fold Difference to pregnant,"[4]; Foetus, oral",1.15
same,Mean Conc-dose -ratio,"[4]; Foetus, oral",0.000247 uM/(mg/day]
same,CDR fold difference to non-pregnant,[4]; [12],1.00
same,TKVF,[4]; [13],3.16
same,95% percentile (Conc-dose-ratio),"[4]; Non-Pregnant, oral",0.014
same,Fold Difference to non-pregnant,"[4]; Non-Pregnant, oral",1.00
same,Mean Conc-dose -ratio,"[4]; Non-Pregnant, oral",0.0044 uM/(mg/day]
same,TKVF,"[4]; Non-Pregnant, oral",3.16
same,CDR fold difference to non-pregnant,[4]; Pregnant population,0.05
same,CDR fold difference to pregnant,[4]; [16],1.00
same,Fold Difference to non-pregnant,"[4]; Pregnant, oral",0.05
same,Fold Difference to pregnant,"[4]; Pregnant, oral",1.00
same,Mean Conc-dose -ratio,"[4]; Pregnant, oral",0.000214 uM/(mg/day]
same,DART Hazard Call,[2]; [11],Non Toxic
same,ADI,[5],ADI set by FSCJ (0.0045 mg/kg/day)
O=C(O)c1ccccc1O [Salicylate],TKVF,[4]; [13],1.96
same,TKVF,"[4]; Non-Pregnant, dermal, formulation Sodium salicylate",1.52
same,TKVF,"[4]; Non-Pregnant, oral, formulation Acetyl salicylic acid",1.96
same,TKVF,"[4]; Non-Pregnant, oral, formulation Sodium salicylate",1.06
same,TKVF,[4]; [17],2.34
same,TKVF,"[4]; Pregnant, oral, formulation Acetyl salicylic acid",2.34
same,MoS,[5],Used safely in cosmetic products. Existent consumer risk assessment from the SCCS. MoS >50
Cn1c(=O)c2[nH]cnc2n(C)c1=O [Theophylline],TKVF,"[4]; female, human, in vivo",1.73
CC1=C(/C=C/C(C)=C/C=C/C(C)=C/C(=O)O)C(C)(C)CCC1 [all-tr-Retinoic Acid],95% percentile (Conc-dose-ratio),[4]; [18],0.00556
same,Fold Difference to non-pregnant,[4]; [18],0.55
same,Fold Difference to pregnant,[4]; [18],0.71
same,Mean Conc-dose -ratio,[4]; [18],0.005 uM/(mg/day]
same,TKVF,[4]; [18],1.06
same,95% percentile (Conc-dose-ratio),[4]; [19],0.00249
same,Mean Conc-dose -ratio,[4]; [19],0.0015 uM/(mg/day]
same,TKVF,[4]; [19],1.66
same,95% percentile (Conc-dose-ratio),[4]; [20],0.02
same,Fold Difference to non-pregnant,[4]; [20],1.00
same,Mean Conc-dose -ratio,[4]; [20],0.010 uM/(mg/day]
same,TKVF,[4]; [20],2.14
same,95% percentile (Conc-dose-ratio),[4]; [21],0.0108
same,Fold Difference to non-pregnant,[4]; [21],0.77
same,Fold Difference to pregnant,[4]; [21],1.00
same,Mean Conc-dose -ratio,[4]; [21],0.007 uM/(mg/day]
same,TKVF,[4]; [21],1.47
